Legend:
Assay type in all cases: functional
[1] = Cytotoxicity against human MALME-3M cells assessed as cell growth at 10 uM after 2 days by SRB assay relative to control; settings: 48 h, read-out: Activity
[2] = Cytotoxicity against human COLO205 cells assessed as cell growth at 10 uM after 2 days by SRB assay relative to control; settings: COLO 205, 48 h, read-out: Activity
[3] = Cytotoxicity against human NCI-H226 cells assessed as cell growth at 10 uM after 2 days by SRB assay relative to control; settings: NCI-H226, 48 h, read-out: Activity
[4] = Cytotoxicity against human OVCAR3 cells assessed as cell growth at 10 uM after 2 days by SRB assay relative to control; settings: OVCAR-3, 48 h, read-out: Activity
[5] = Cytotoxicity against human CCRF-CEM cells assessed as cell growth at 10 uM after 2 days by SRB assay relative to control; settings: 48 h, read-out: Activity
[6] = Cytotoxicity against human UACC62 cells assessed as cell growth at 10 uM after 2 days by SRB assay relative to control; settings: UACC-62, 48 h, read-out: Activity
[7] = Cytotoxicity against human 786-0 cells assessed as cell growth at 10 uM after 2 days by SRB assay relative to control; settings: 786-0, 48 h, read-out: Activity
[8] = Cytotoxicity against human SK-MEL-5 cells assessed as cell growth at 10 uM after 2 days by SRB assay relative to control; settings: SK-MEL-5, 48 h, read-out: Activity
[9] = Cytotoxicity against human BT549 cells assessed as cell growth at 10 uM after 2 days by SRB assay relative to control; settings: BT-549, 48 h, read-out: Activity
[10] = Cytotoxicity against human HL-60(TB) cells assessed as cell growth at 10 uM after 2 days by SRB assay relative to control; settings: HL-60, 48 h, read-out: Activity
[11] = Cytotoxicity against human MDA-MB-435 cells assessed as cell growth at 10 uM after 2 days by SRB assay relative to control; settings: MDA-MB-435, 48 h, read-out: Activity
[12] = Cytotoxicity against human HOP92 cells assessed as cell growth at 10 uM after 2 days by SRB assay relative to control; settings: HOP-92, 48 h, read-out: Activity
[13] = Cytotoxicity against human DU145 cells assessed as cell growth at 10 uM after 2 days by SRB assay relative to control; settings: DU-145, 48 h, read-out: Activity
[14] = Cytotoxicity against human SF539 cells assessed as cell growth at 10 uM after 2 days by SRB assay relative to control; settings: SF-539, 48 h, read-out: Activity
[15] = Cytotoxicity against human RXF393 cells assessed as cell growth at 10 uM after 2 days by SRB assay relative to control; settings: RXF 393, 48 h, read-out: Activity
[16] = Cytotoxicity against human A498 cells assessed as cell growth at 10 uM after 2 days by SRB assay relative to control; settings: A498, 48 h, read-out: Activity
[17] = Cytotoxicity against human HeLa cells assessed as reduction in cell viability cell at 300 uM after 24 hrs by MTT assay

Structure (SMILES): COc1c(N[C@H]2C=C[C@@H](CO)C2)c(=O)c1=O
- growth at 10 µM [1]: 109%
- growth at 10 µM [2]: 141%
- growth at 10 µM [3]: 105%
- growth at 10 µM [4]: 105%
- growth at 10 µM [5]: 108%
- growth at 10 µM [6]: 101%
- growth at 10 µM [7]: 98.5%
- growth at 10 µM [8]: 103%
- growth at 10 µM [9]: 110%
- growth at 10 µM [10]: 96.4%
- growth at 10 µM [11]: 118%
- growth at 10 µM [12]: 111%
- growth at 10 µM [13]: 117%
- growth at 10 µM [14]: 101%
- growth at 10 µM [15]: 126%
- growth at 10 µM [16]: 105%

Structure (SMILES): Nc1c(N[C@H]2C=C[C@@H](CO)C2)c(=O)c1=O
- growth at 10 µM [1]: 100%
- inhibition at 300 µM [17]: 50%
- growth at 10 µM [2]: 121%
- growth at 10 µM [3]: 107%
- growth at 10 µM [5]: 89.3%
- growth at 10 µM [6]: 98.3%
- growth at 10 µM [7]: 106%
- growth at 10 µM [8]: 104%
- growth at 10 µM [9]: 115%
- growth at 10 µM [10]: 96.7%
- growth at 10 µM [11]: 114%
- growth at 10 µM [12]: 104%
- growth at 10 µM [14]: 98.3%
- growth at 10 µM [15]: 143%
- growth at 10 µM [16]: 114%

Structure (SMILES): O=c1c(O)c(N[C@H]2C=C[C@@H](CO)C2)c1=O
- growth at 10 µM [1]: 115%
- growth at 10 µM [2]: 134%
- growth at 10 µM [3]: 157%
- growth at 10 µM [4]: 122%
- growth at 10 µM [5]: 116%
- growth at 10 µM [6]: 118%
- growth at 10 µM [7]: 102%
- growth at 10 µM [8]: 106%
- growth at 10 µM [10]: 100%
- growth at 10 µM [11]: 120%
- growth at 10 µM [12]: 121%
- growth at 10 µM [13]: 120%
- growth at 10 µM [14]: 114%
- growth at 10 µM [15]: 166%

— ChEMBL document CHEMBL3871297, “Squarate-based carbocyclic nucleosides: Syntheses, computational analyses and anticancer/antiviral evaluation” (2017)
